21 molecules from US10722514B2 (FLX Bio, Inc., priority 2017, dated 2020) can be followed below.

For this assay, the target named is T1, recombinant full-length USP7 (Homo sapiens, UniProt Q93009).
T1 construct: A 25 μl reaction volume containing recombinant full-length USP7 (62 pM)
The assay is described as follows: USP7-mediated ubiquitin-rhodamine cleavage assay. The format is biochemical. To be noted: recombinant full-length USP7 62 pM, ubiquitin-rhodamine 100 nM, 1 hour reaction at room temperature. In a few lines:
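USP7 (62 pM) in 20 mM HEPES pH 7.3, 150 mM NaCl, 1 mM TCEP, 125 μg/ml BSA was preincubated with compound (1% DMSO) for 30 min at room temperature. Ubiquitin-rhodamine (100 nM final) was then added for 1 hour, the reaction stopped with acetic acid, and fluorescence read; IC50 from 4-parameter fit.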

Where [1] appears, read: 30-minute incubation with compound, read-out: Potency: USP7 IC50.
Where [2] appears, read: 30-minute pre-incubation, read-out: Potency (USP7 IC50).

Each structure is given as a SMILES string. Counter-ions that a name gives are not always drawn. Like-named read-outs stand apart in the source and are kept apart here.

T1 sequence (Q93009 whole entry): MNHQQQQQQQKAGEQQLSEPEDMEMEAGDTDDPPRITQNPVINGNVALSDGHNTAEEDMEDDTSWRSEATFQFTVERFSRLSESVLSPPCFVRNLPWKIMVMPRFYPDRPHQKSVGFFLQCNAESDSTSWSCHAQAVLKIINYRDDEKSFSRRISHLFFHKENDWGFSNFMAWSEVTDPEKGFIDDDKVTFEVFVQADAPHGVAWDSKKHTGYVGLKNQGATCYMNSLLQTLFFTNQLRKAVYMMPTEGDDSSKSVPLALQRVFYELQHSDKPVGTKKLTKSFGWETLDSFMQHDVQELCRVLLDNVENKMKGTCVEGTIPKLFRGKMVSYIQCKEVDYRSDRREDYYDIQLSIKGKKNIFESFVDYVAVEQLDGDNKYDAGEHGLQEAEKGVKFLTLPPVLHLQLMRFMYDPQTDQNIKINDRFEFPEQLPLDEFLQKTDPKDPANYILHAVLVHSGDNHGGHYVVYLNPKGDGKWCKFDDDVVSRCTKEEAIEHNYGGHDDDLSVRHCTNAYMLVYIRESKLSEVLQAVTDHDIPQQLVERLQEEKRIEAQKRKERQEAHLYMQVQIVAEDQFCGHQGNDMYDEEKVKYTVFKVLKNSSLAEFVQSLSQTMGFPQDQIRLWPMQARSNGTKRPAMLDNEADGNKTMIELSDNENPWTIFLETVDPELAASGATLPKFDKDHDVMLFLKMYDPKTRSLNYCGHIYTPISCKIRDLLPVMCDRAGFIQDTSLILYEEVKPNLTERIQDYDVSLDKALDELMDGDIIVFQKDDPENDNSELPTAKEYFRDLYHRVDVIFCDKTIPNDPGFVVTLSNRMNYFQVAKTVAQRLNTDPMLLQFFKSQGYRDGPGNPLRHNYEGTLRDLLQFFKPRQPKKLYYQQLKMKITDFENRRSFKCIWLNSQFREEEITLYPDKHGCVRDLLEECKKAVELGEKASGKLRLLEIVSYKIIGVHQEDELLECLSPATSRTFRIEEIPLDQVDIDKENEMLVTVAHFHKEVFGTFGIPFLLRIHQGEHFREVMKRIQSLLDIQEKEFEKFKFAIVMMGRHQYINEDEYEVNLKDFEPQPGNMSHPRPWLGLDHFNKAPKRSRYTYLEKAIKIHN

As a reminder, the IC50 is the concentration at which inhibition is half-maximal. `Cc1cc(Cl)cc(-c2ccnc3cc(CN4C(=O)CCC4=O)sc23)c1O[C@@H]1CCCNCC1` [Example 270, (R)-1-((7-(2-(Azepan-4-yloxy)-5-chloro-3-methylphenyl)thieno[3,2-b]pyridin-2-yl)methyl)pyrrolidine-2,5-dione]: the IC50 under setting [1] was under 1000 nM. `Cc1cc(Cl)cc(-c2ccnc3cc(Cn4c(=O)ccn(CC(F)(F)F)c4=O)sc23)c1Oc1ccncc1` [Example 681, 3-[[7-[5-chloro-3-methyl-2-(4-pyridyloxy)phenyl]thieno[3,2-b]pyridin-2-yl]methyl]-1-(2,2,2-trifluoroethyl)pyrimidine-2,4-dione; 2,2,2-trifluoroacetic acid]: where the note is “30-minute incubation, read-out: Potency (USP7 IC50)”, the IC50 was under 1000 nM. `CN[C@@H]1CC[C@@H](Oc2c(C)cc(Cl)cc2-c2ccnc3cc(CN4C(=O)CCC4=O)sc23)C1` [Example 53, 1-((7-(5-Chloro-3-methyl-2-(((1R,3R)-3-(methylamino)cyclopentyl)oxy)phenyl)thieno[3,2-b]pyridin-2-yl)methyl)pyrrolidine-2,5-dione]: under setting [1], the half-inhibitory concentration (IC50) was under 1000 nM.

For the molecule `Cc1cc(Cl)cc(-c2ncnc3cc(Cn4c(=O)ccn(CC(F)(F)F)c4=O)sc23)c1O[C@@H]1CNC[C@@H]1F` [Example 525, 3-[[4-[5-chloro-2-[(3R,4S)-4-fluoropyrrolidin-3-yl]oxy-3-methyl-phenyl]thieno[3,2-d]pyrimidin-6-yl]methyl]-1-(2,2,2-trifluoroethyl)pyrimidine-2,4-dione], under setting [2], the half-maximal inhibitory concentration (IC50) is under 1000 nM. On to `Cc1cc(Cl)cc(-c2ccnc3cc(CN4C(=O)CCC4=O)sc23)c1OC1CN2CCC1CC2` (stereo not drawn) [Example 318, 1-[[7-(5-chloro-3-methyl-2-quinuclidin-3-yloxy-phenyl)thieno[3,2-b]pyridin-2-yl]methyl]pyrrolidine-2,5-dione; 2,2,2-trifluoroacetic acid], for which the 50% inhibitory concentration (IC50) under setting [1] was under 1000 nM. On to `CCc1cc(Cl)cc(-c2ccnc3cc(CO)sc23)c1OCC1CNC1` [Example 22, (7-(2-(Azetidin-3-ylmethoxy)-5-chloro-3-ethylphenyl)thieno[3,2-b]pyridin-2-yl)methanol], for which the concentration for half-maximal inhibition (IC50) under setting [1] fell in the range of 1000 to 10000 nM. Consider `Cc1cc(Cl)cc(-c2ccnc3cc(CN4C(=O)CCC4=O)sc23)c1OC1CC(N)C1` (stereo not drawn) [Example 438, 1-[[7-[2-(3-aminocyclobutoxy)-5-chloro-3-methyl-phenyl]thieno[3,2-b]pyridin-2-yl]methyl]pyrrolidine-2,5-dione; 2,2,2-trifluoroacetic acid], for which, under setting [2], the half-inhibitory concentration (IC50) is under 1000 nM.

As for `Cc1cc(Cl)cc(-c2ccnc3cc(CO)sc23)c1O[C@@H]1CNC[C@@H]1O` [Example 78, (3S,4R)-4-(4-Chloro-2-(2-(hydroxymethyl)thieno[3,2-b]pyridin-7-yl)-6-methylphenoxy)pyrrolidin-3-ol], under setting [1], the IC50 was in the range of 1000 to 10000 nM. On to `N#Cc1cc(Cl)cc(-c2ccnc3cc(CO)sc23)c1O[C@H]1CCCNC1` [Example 239, (S)-5-Chloro-3-(2-(hydroxymethyl)thieno[3,2-b]pyridin-7-yl)-2-(piperidin-3-yloxy)benzonitrile], for which, under setting [1], the IC50 was over 30000 nM. Same read-out and setting: with `Cc1cc(Cl)cc(-c2ccnc3cc(CN4C(=O)CCC4=O)sc23)c1OCC1(C#N)CNC1` [Example 12, 3-((4-Chloro-2-(2-((2,5-dioxopyrrolidin-1-yl)methyl)thieno[3,2-b]pyridin-7-yl)-6-methylphenoxy)methyl)azetidine-3-carbonitrile] the figure was under 1000 nM. In the case of `CCC(O)c1cc2nccc(-c3cc(Cl)cc(C)c3OC3CCN(C)CC3)c2s1` (stereo not drawn) [Example 188, 1-(7-(5-Chloro-3-methyl-2-((1-methylpiperidin-4-yl)oxy)phenyl)thieno[3,2-b]pyridin-2-yl)propan-1-ol], under setting [1], the IC50 was 1000 to 10000 nM. As to `Cc1cc(Cl)cc(-c2ccnc3cc(CO)sc23)c1OCC1(C#N)CNC1` [Example 41, 3-((4-Chloro-2-(2-(hydroxymethyl)thieno[3,2-b]pyridin-7-yl)-6-methylphenoxy)methyl)azetidine-3-carbonitrile], under setting [1], the IC50 is under 1000 nM. With `Cc1cc(Cl)cc(-c2ncnc3cc(CN4C(=O)CSC4=O)sc23)c1O[C@H]1CCCNC1` [Example 250, (S)-3-((4-(5-Chloro-3-methyl-2-(piperidin-3-yloxy)phenyl)thieno[3,2-d]pyrimidin-6-yl)methyl)thiazolidine-2,4-dione], under setting [1], the IC50 is under 1000 nM. Consider `Cc1cc(Cl)cc(-c2ccnc3cc(CN4C(=O)C5C(C4=O)C5(C)C)sc23)c1O[C@H]1CCCN[C@H]1C` (stereo partly drawn) [Example 363, 3-[[7-[5-chloro-3-methyl-2-[[(2S,3S)-2-methyl-3-piperidyl]oxy]phenyl]thieno[3,2-b]pyridin-2-yl]methyl]-6,6-dimethyl-3-azabicyclo[3.1.0]hexane-2,4-dione; 2,2,2-trifluoroacetic acid], for which, under setting [1], the 50% inhibitory concentration (IC50) was under 1000 nM.

As for `Cc1cc(Cl)cc(-c2ccnc3cc(CN4C(=O)C5C(C4=O)C5(C)C)sc23)c1O[C@@H]1CCNC[C@@H]1C` (stereo partly drawn) [Example 366, 3-[[7-[5-chloro-3-methyl-2-[[(3S,4R)-3-methyl-4-piperidyl]oxy]phenyl]thieno[3,2-b]pyridin-2-yl]methyl]-6,6-dimethyl-3-azabicyclo[3.1.0]hexane-2,4-dione dihydrochloride], the half-inhibitory concentration (IC50) under setting [1] is under 1000 nM. As to `Cc1cc(Cl)cc(-c2ccnc3cc(CN4C(=O)CCC4=O)sc23)c1O[C@H]1CCCNCC1` [Example 269, (S)-1-((7-(2-(Azepan-4-yloxy)-5-chloro-3-methylphenyl)thieno[3,2-b]pyridin-2-yl)methyl)pyrrolidine-2,5-dione], under setting [1], the IC50 is under 1000 nM. As for `Cc1cc(Cl)cc(-c2ccnc3cc(Cn4c(=O)ccn(C)c4=O)sc23)c1OC1CNCCC1(F)F` (stereo not drawn) [Example 514, 3-[[7-[5-chloro-2-[(4,4-difluoro-3-piperidyl)oxy]-3-methyl-phenyl]thieno[3,2-b]pyridin-2-yl]methyl]-1-methyl-pyrimidine-2,4-dione; 2,2,2-trifluoroacetic acid], under setting [2], the IC50 is under 1000 nM. For `Cc1cc(Cl)cc(-c2ccnc3cc(Cn4c(=O)ccn(CC(F)(F)F)c4=O)sc23)c1O[C@H]1CCNC[C@H]1C` [Example 565, 3-[[7-[5-chloro-3-methyl-2-[[(3R,4S)-3-methyl-4-piperidyl]oxy]phenyl]thieno[3,2-b]pyridin-2-yl]methyl]-1-(2,2,2-trifluoroethyl)pyrimidine-2,4-dione], under setting [2], the IC50 is under 1000 nM.

Turning to `CCC(O)c1cc2nccc(-c3cc(Cl)cc(C)c3OC3CCNC3=O)c2s1` (stereo not drawn) [Example 87, 3-(4-Chloro-2-(2-(1-hydroxypropyl)thieno[3,2-b]pyridin-7-yl)-6-methylphenoxy)pyrrolidin-2-one], under setting [1], the IC50 lay within 10000 to 30000 nM. Turning to `Cc1cc(Cl)cc(-c2ccnc3cc(Cn4c(=O)ccn(C(C)C)c4=O)sc23)c1O[C@H]1CCCNC1` [Example 447, 3-[[7-[5-chloro-3-methyl-2-[[(3S)-3-piperidyl]oxy]phenyl]thieno[3,2-b]pyridin-2-yl]methyl]-1-isopropyl-pyrimidine-2,4-dione], under setting [2], the half-inhibitory concentration (IC50) is under 1000 nM.

`Cc1cc(Cl)cc(-c2ccnc3cc(CO)sc23)c1OC[C@H]1CCCN1` [Example 58, (R)-(7-(5-Chloro-3-methyl-2-(pyrrolidin-2-ylmethoxy)phenyl)thieno[3,2-b]pyridin-2-yl)methanol]: the IC50 under setting [1] was 10000 to 30000 nM.
